The experiment concerns the target T1, human glioblastoma A172 cells, naturally expressing hTDO2 (Homo sapiens, UniProt P48775).
T1 construct: human glioblastoma A172 cells, naturally expressing hTDO2; endogenous in cells; host or cells: human glioblastoma A172 cells (ATCC CRL-1620)
Put plainly: Cellular assay for TDO2 activity, A172 cells. It is filed as cell-based. The note with it: overnight incubation, kynurenine in supernatant. As for the experimental part: The compounds of formula I inhibit the activity of human TDO2 in cells that constitutively express TDO2, such as A172 cells. A172 is a cell line derived from human brain glioblastoma cells. The cells are available from the American Type Culture Collection (ATCC®) as CRL-1620™
The assay (adapted from Pilotte L et al., Proc Natl Acad Sci USA, 2012, 109(7), 2497-502) was performed in 96-well flat bottom plates seeded with human glioblastoma A172 cells, naturally expressing hTDO2 (prepared as described in Tilman et al., Mol Cancer, 2007, 17(6), 80), at a concentration of 1.25×10^4 cells/well in a final volume of 200 μL. To determine TDO, the cells were incubated overnight at 37° C. at 5% CO2 in IMDM (Invitrogen) supplemented with 2% FBS and 2% penicillin/streptomycin in the presence of the compounds of the present invention, at different concentrations.
The plates were then centrifuged 5 min at 1000 rpm, and 100 μL of the supernatant were collected in a conical plate, 30 uL of TCA 30% were added and a further centrifugated at 3000×g for 10 minutes. 100 μL of the supernatant were collected in a flat bottomed plate and 100 μL of 2% (w/v) 4-(dimethylamino)-benzaldehyde in acetic acid and incubated for 5 min at room temperature. Kynurenine concentrations were determined by measuring the absorbance at 480 nm. A standard curve was made with pure kynurenine. The TDO activity was measured as described above using ten serial concentrations of the compounds of the present invention. Data were fitted using the Prism™ software (GraphPad Software, Inc.) using standard parameters.

Counter-ions that a name gives are not always drawn.

T1 sequence (P48775 whole entry): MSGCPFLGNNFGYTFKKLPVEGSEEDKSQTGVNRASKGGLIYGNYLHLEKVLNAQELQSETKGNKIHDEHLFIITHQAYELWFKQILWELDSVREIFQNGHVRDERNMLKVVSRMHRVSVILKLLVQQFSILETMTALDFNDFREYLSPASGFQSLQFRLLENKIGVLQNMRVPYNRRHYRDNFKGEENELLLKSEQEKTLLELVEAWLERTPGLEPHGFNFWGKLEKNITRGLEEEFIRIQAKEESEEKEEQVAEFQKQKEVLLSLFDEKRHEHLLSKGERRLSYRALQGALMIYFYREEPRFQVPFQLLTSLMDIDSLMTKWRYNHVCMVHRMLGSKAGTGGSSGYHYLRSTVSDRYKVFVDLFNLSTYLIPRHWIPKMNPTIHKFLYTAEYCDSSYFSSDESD

A word on the IC50: it is the concentration needed to halve the response being measured. As to `C[C@@H]1CN[C@@H](C)CN1CCc1nc2ccc(-c3c[nH]c4cc(F)ccc34)cc2o1` (relative stereo) [Compound 141, 2-(2-(trans-2,5-dimethylpiperazin-1-yl)ethyl)-6-(6-fluoro-1H-indol-3-yl)benzo[d]oxazole], the IC50 amounted to 340 nM.

Take `Nc1nc2ccc(-c3c[nH]c4cc(F)ccc34)cc2[nH]1` [Compound 41, 6-(6-fluoro-1H-indol-3-yl)-1H-benzo[d]imidazol-2-amine]: the IC50 came out at 1090 nM. Then `Fc1ccc2c(-c3ccc4nc(C5CCNCC5)oc4c3)c[nH]c2c1` [Compound 55, 6-(6-fluoro-1H-indol-3-yl)-2-(piperidin-4-yl)benzo[d]oxazole], with 171 nM; and `CC(=O)N1CCC(c2nc3ccc(-c4c[nH]c5cc(F)ccc45)cc3o2)CC1` [Compound 56, 1-(4-(6-(6-fluoro-1H-indol-3-yl)benzo[d]oxazol-2-yl)piperidin-1-yl)ethanone], with 311 nM.

`CS(=O)(=O)Nc1nc2ccc(-c3c[nH]c4cc(F)ccc34)cc2o1` [Compound 58, N-(6-(6-fluoro-1H-indol-3-yl)benzo[d]oxazol-2-yl)methanesulfonamide]: the IC50 came to 3770 nM. With `Fc1ccc2c(-c3ccc4oc(CN5CCNCC5)nc4c3)c[nH]c2c1` [Compound 61, 5-(6-fluoro-1H-indol-3-yl)-2-(piperazin-1-ylmethyl)benzo[d]oxazole] the figure was 459 nM; with `Fc1ccc2c(-c3ccc4oc(CN5CCOCC5)nc4c3)c[nH]c2c1` [Compound 63, 5-(6-fluoro-1H-indol-3-yl)-2-(morpholinomethyl)benzo[d]oxazole], 597 nM; with `NC(=O)CCn1c(=O)oc2cc(-c3c[nH]c4cc(F)ccc34)ccc21` [Compound 67, 3-(6-(6-fluoro-1H-indol-3-yl)-2-oxobenzo[d]oxazol-3(2H)-yl)propanamide], 2520 nM. Regarding `NC(=O)Cn1c(=O)oc2ccc(-c3c[nH]c4cc(F)ccc34)cc21` [Compound 69, 2-(5-(6-fluoro-1H-indol-3-yl)-2-oxobenzo[d]oxazol-3(2H)-yl)acetamide], it took 3280 nM to reach half-maximal inhibition (IC50). With `NC(=O)CCn1c(=O)oc2ccc(-c3c[nH]c4cc(F)ccc34)cc21` [Compound 71] the figure was 3530 nM; with `Fc1ccc2c(-c3ccc4sccc4c3)c[nH]c2c1` [Compound 72, 3-(benzo[b]thiophen-5-yl)-6-fluoro-1H-indole], 442 nM. For the compound `CC(=O)NCc1nc2cc(-c3c[nH]c4cc(F)ccc34)ccc2o1` [Compound 73, N-((5-(6-fluoro-1H-indol-3-yl)benzo[d]oxazol-2-yl)methyl)acetamide], the IC50 was 363 nM. Then `NCc1nc2ccc(-c3c[nH]c4cc(F)ccc34)cc2o1` [Compound 76, (6-(6-fluoro-1H-indol-3-yl)benzo[d]oxazol-2-yl)methanamine hydrochloride], with 440 nM; and `Fc1ccc2c(-c3ccc4ccsc4c3)c[nH]c2c1` [Compound 79, 3-(benzo[b]thiophen-6-yl)-6-fluoro-1H-indole], with 802 nM; and `CS(=O)(=O)CCc1nc2cc(-c3c[nH]c4cc(F)ccc34)ccc2o1` [Compound 80, 5-(6-fluoro-1H-indol-3-yl)-2-(2-(methylsulfonyl)ethyl)benzo[d]oxazole], with 842 nM. As to `NCc1nc2cc(-c3c[nH]c4cc(F)ccc34)ccc2o1` [Compound 81, (5-(6-fluoro-1H-indol-3-yl)benzo[d]oxazol-2-yl)methanamine], the IC50 came to 1620 nM. Compared with the last compound, the IC50 is about 1.9-fold higher. Take `Fc1ccc2c(-c3ccc4occc4c3)c[nH]c2c1` [Compound 82, 3-(benzofuran-5-yl)-6-fluoro-1H-indole]: the IC50 was determined as 602 nM.

`NC(=O)CCc1nc2ccc(-c3c[nH]c4cc(F)ccc34)cc2o1` [Compound 83, 3-(6-(6-fluoro-1H-indol-3-yl)benzo[d]oxazol-2-yl)propanamide] registered an IC50 of 154 nM. Against the preceding compound, the IC50 is about 3.9-fold lower. The compound `NC(=O)Cn1cnc2ccc(-c3c[nH]c4cc(F)ccc34)cc21` [Compound 84, 2-(6-(6-fluoro-1H-indol-3-yl)-1H-benzo[d]imidazol-1-yl)acetamide] yielded a 50% inhibitory concentration (IC50) of 1020 nM. In the case of `NC(=O)Cn1cnc2cc(-c3c[nH]c4cc(F)ccc34)ccc21` [Compound 85, 2-(5-(6-fluoro-1H-indol-3-yl)-1H-benzo[d]imidazol-1-yl)acetamide], half-maximal inhibition (IC50) required 1330 nM. Then `O=C(CCn1ncc2cc(-c3c[nH]c4cc(F)ccc34)ccc21)N1CCOCC1` [Compound 86, 3-(5-(6-fluoro-1H-indol-3-yl)-1H-indazol-1-yl)-1-morpholinopropan-1-one], with 646 nM; and `CN1CCN(C(=O)CCn2ncc3cc(-c4c[nH]c5cc(F)ccc45)ccc32)CC1` [Compound 87, 3-(5-(6-fluoro-1H-indol-3-yl)-1H-indazol-1-yl)-1-(4-methylpiperazin-1-yl)propan-1-one], with 298 nM; and `CN(C)CCNC(=O)CCn1ncc2cc(-c3c[nH]c4cc(F)ccc34)ccc21` [Compound 88, N-(2-(dimethylamino)ethyl)-3-(5-(6-fluoro-H-indol-3-yl)-1H-indazol-1-yl)propanamide], with 170 nM. Then `O=C(CCn1ncc2cc(-c3c[nH]c4cc(F)ccc34)ccc21)NCCO` [Compound 89, 3-(5-(6-fluoro-1H-indol-3-yl)-1H-indazol-1-yl)-N-(2-hydroxyethyl)propanamide], with 205 nM; and `CS(=O)(=O)CCNC(=O)CCn1ncc2cc(-c3c[nH]c4cc(F)ccc34)ccc21` [Compound 90, 3-(5-(6-fluoro-1H-indol-3-yl)-1H-indazol-1-yl)-N-(2-(methylsulfonyl)ethyl)propanamide], with 240 nM; and `O=C(CCn1ncc2cc(-c3c[nH]c4cc(F)ccc34)ccc21)N1CCNCC1` [Compound 91, 3-(5-(6-fluoro-1H-indol-3-yl)-1H-indazol-1-yl)-1-(piperazin-1-yl)propan-1-one], with 213 nM. The compound `O=C1Cc2ccc(-c3c[nH]c4cc(F)ccc34)cc2N1` [Compound 92, 6-(6-fluoro-1H-indol-3-yl)indolin-2-one] came in with an IC50 of 508 nM. Against the preceding compound, the IC50 is about 2.4-fold higher.

Compound `NC(=O)CCn1cnc2ccc(-c3c[nH]c4cc(F)ccc34)cc21` [Compound 93, 3-(6-(6-fluoro-1H-indol-3-yl)-1H-benzo[d]imidazol-1-yl)propanamide] came in with an IC50 of 1150 nM. Compound `NC(=O)CCn1cnc2cc(-c3c[nH]c4cc(F)ccc34)ccc21` [Compound 94, 3-(5-(6-fluoro-1H-indol-3-yl)-1H-benzo[d]imidazol-1-yl)propanamide] registered an IC50 of 4640 nM. Consider `COCCS(=O)(=O)NCc1nc2ccc(-c3c[nH]c4cc(F)ccc34)cc2o1` [Compound 99, N-((6-(6-fluoro-1H-indol-3-yl)benzo[d]oxazol-2-yl)methyl)-2-methoxyethanesulfonamide], for which the IC50 was determined as 351 nM. Take `c1ccc2c(-c3ccc4[nH]ncc4c3)c[nH]c2c1` [Compound 104, 5-(1H-indol-3-yl)-1H-indazole]: the midpoint of inhibition, the IC50, lay at 464 nM.

Compound `c1ccc2c(-c3ccc4cn[nH]c4c3)c[nH]c2c1` [Compound 108, 6-(1H-indol-3-yl)-1H-indazole] gave an IC50 of 599 nM. Then `c1ccc2c(-c3ccc4ncoc4c3)c[nH]c2c1` [Compound 109, 6-(1H-indol-3-yl)benzo[d]oxazole], with 446 nM; and `Clc1ccc2c(-c3ccc4ocnc4c3)c[nH]c2c1` [Compound 111, 5-(6-chloro-1H-indol-3-yl)benzo[d]oxazole], with 19000 nM.

For the origin of these results see patent US20150266857A1, “NOVEL 3-INDOL SUBSTITUTED DERIVATIVES, PHARMACEUTICAL COMPOSITIONS AND METHODS FOR USE” (iTeos Therapeutics, priority 2014, published 2015).
